Assays:
Format in all cases: in vivo
[1] = tested on: barnyardgrass (Echinochloa crus-galli); experiment: Test A preemergence; conditions: Echinochloa crus-galli, pre-emergence, 240 h; for pest or weed control at 31 g/ha: 31 g ai/ha, 0 to 100 scale (0 no effect, 100 complete control), read-out: Barnyardgrass plant response rating; for pest or weed control at 125 g/ha: 125 g ai/ha, 0 to 100 scale, read-out: Plant response rating, Barnyardgrass
Text: (§1) Seeds of plant species selected from barnyardgrass (Echinochloa crus-galli), kochia (Kochia scoparia), ragweed (common ragweed, Ambrosia elatior), Italian ryegrass (Lolium multiflorum), large (Lg) crabgrass (Digitaria sanguinalis), giant foxtail (Setaria faberii), morningglory (Ipomoea spp.), pigweed (Amaranthus retroflexus), velvetleaf (Abutilon theophrasti), wheat (Triticum aestivum), and corn (Zea mays) were planted into a blend of loam soil and sand and treated preemergence with a directed soil spray using test chemicals formulated in a non-phytotoxic solvent mixture which included a surfactant.
(§2) At the same time, plants selected from these crop and weed species and also blackgrass (Alopecurus myosuroides), and galium (catchweed bedstraw, Galium aparine) were planted in pots containing the same blend of loam soil and sand and treated with postemergence applications of test chemicals formulated in the same manner. Plants ranged in height from 2 to 10 cm and were in the one- to two-leaf stage for the postemergence treatment. Treated plants and untreated controls were maintained in a greenhouse for approximately 10 days, after which time all treated plants were compared to untreated controls and visually evaluated for injury. Plant response ratings, summarized in Table A, are based on a 0 to 100 scale where 0 is no effect and 100 is complete control. A dash (-) response means no test result.

kochia (Kochia scoparia) [2] = experiment: Test A preemergence; conditions: Bassia scoparia, pre-emergence, 240 h; for pest or weed control at 31 g/ha: 31 g ai/ha, 0 to 100 scale (0 no effect, 100 complete control), read-out: Kochia plant response rating; for pest or weed control at 125 g/ha: 125 g ai/ha, 0 to 100 scale, read-out: Plant response rating, Kochia
Text: as §1, §2

[3] = tested on: ragweed (common ragweed, Ambrosia elatior); experiment: Test A preemergence; conditions: Ambrosia artemisiifolia, pre-emergence, 240 h; for pest or weed control at 31 g/ha: 31 g ai/ha, 0 to 100 scale (0 no effect, 100 complete control), read-out: Ragweed plant response rating; for pest or weed control at 125 g/ha: 125 g ai/ha, 0 to 100 scale, read-out: Plant response rating, Ragweed
Text: as §1, §2

[4] = tested on: Italian ryegrass (Lolium multiflorum); experiment: Test A preemergence; conditions: Lolium multiflorum, pre-emergence, 240 h; for pest or weed control at 31 g/ha: 31 g ai/ha, 0 to 100 scale (0 no effect, 100 complete control), read-out: Ryegrass, Italian plant response rating; for pest or weed control at 125 g/ha: 125 g ai/ha, 0 to 100 scale, read-out: Plant response rating, Ryegrass, Italian
Text: as §1, §2

[5] = tested on: giant foxtail (Setaria faberii); experiment: Test A preemergence; conditions: Setaria faberi, pre-emergence, 240 h; for pest or weed control at 31 g/ha: 31 g ai/ha, 0 to 100 scale (0 no effect, 100 complete control), read-out: Foxtail, Giant plant response rating; for pest or weed control at 125 g/ha: 125 g ai/ha, 0 to 100 scale, read-out: Plant response rating, Foxtail, Giant
Text: as §1, §2

[6] = tested on: pigweed (Amaranthus retroflexus); experiment: Test A preemergence; conditions: Amaranthus retroflexus, pre-emergence, 240 h; for pest or weed control at 31 g/ha: 31 g ai/ha, 0 to 100 scale (0 no effect, 100 complete control), read-out: Pigweed plant response rating; for pest or weed control at 125 g/ha: 125 g ai/ha, 0 to 100 scale, read-out: Plant response rating, Pigweed
Text: as §1, §2

[7] = tested on: barnyardgrass (Echinochloa crus-galli); experiment: Test A postemergence; conditions: Echinochloa crus-galli, post-emergence, 240 h, 0 to 100 scale, read-out: Plant response rating, Barnyardgrass; for pest or weed control at 31 g/ha: 31 g ai/ha; for pest or weed control at 125 g/ha: 125 g ai/ha
Text: as §1, §2

kochia (Kochia scoparia) [8] = experiment: Test A postemergence; conditions: Bassia scoparia, post-emergence, 240 h, 0 to 100 scale, read-out: Plant response rating, Kochia; for pest or weed control at 31 g/ha: 31 g ai/ha; for pest or weed control at 125 g/ha: 125 g ai/ha
Text: as §1, §2

[9] = tested on: galium (catchweed bedstraw, Galium aparine); experiment: Test A postemergence; conditions: Galium, post-emergence, 240 h, 0 to 100 scale, read-out: Plant response rating, Galium; for pest or weed control at 31 g/ha: 31 g ai/ha; for pest or weed control at 125 g/ha: 125 g ai/ha
Text: as §1, §2

corn (Zea mays) = experiment: Test A postemergence; conditions: Zea mays, post-emergence, 240 h, 0 to 100 scale; for Corn plant response rating (crop injury, 0 = no effect, 100 = complete kill) at 31 g/ha: 31 g ai/ha; for Corn plant response rating (crop injury, 0 = no effect, 100 = complete kill) at 125 g/ha: 125 g ai/ha
Text: as §1, §2

[10] = tested on: ragweed (common ragweed, Ambrosia elatior); experiment: Test A postemergence; conditions: Ambrosia artemisiifolia, post-emergence, 240 h, 0 to 100 scale, read-out: Plant response rating, Ragweed; for pest or weed control at 31 g/ha: 31 g ai/ha; for pest or weed control at 125 g/ha: 125 g ai/ha
Text: as §1, §2

[11] = tested on: blackgrass (Alopecurus myosuroides); experiment: Test A postemergence; conditions: Alopecurus myosuroides, post-emergence, 240 h, 0 to 100 scale, read-out: Plant response rating, Blackgrass; for pest or weed control at 31 g/ha: 31 g ai/ha; for pest or weed control at 125 g/ha: 125 g ai/ha
Text: as §1, §2

[12] = tested on: wheat (Triticum aestivum); experiment: Test A postemergence; conditions: Triticum aestivum, post-emergence, 240 h, 0 to 100 scale, read-out: Plant response rating, Wheat; for plant injury at 31 g/ha: 31 g ai/ha; for plant injury at 125 g/ha: 125 g ai/ha
Text: as §1, §2

[13] = tested on: Italian ryegrass (Lolium multiflorum); experiment: Test A postemergence; conditions: Lolium multiflorum, post-emergence, 240 h, 0 to 100 scale, read-out: Plant response rating, Ryegrass, Italian; for pest or weed control at 31 g/ha: 31 g ai/ha; for pest or weed control at 125 g/ha: 125 g ai/ha
Text: as §1, §2

[14] = tested on: giant foxtail (Setaria faberii); experiment: Test A postemergence; conditions: Setaria faberi, post-emergence, 240 h, 0 to 100 scale, read-out: Plant response rating, Foxtail, Giant; for pest or weed control at 31 g/ha: 31 g ai/ha; for pest or weed control at 125 g/ha: 125 g ai/ha
Text: as §1, §2

[15] = tested on: pigweed (Amaranthus retroflexus); experiment: Test A postemergence; conditions: Amaranthus retroflexus, post-emergence, 240 h, 0 to 100 scale, read-out: Plant response rating, Pigweed; for pest or weed control at 31 g/ha: 31 g ai/ha; for pest or weed control at 125 g/ha: 125 g ai/ha
Text: as §1, §2

SMILES	pest or weed control at 31 g/ha [1] [%]	pest or weed control at 125 g/ha [1] [%]	pest or weed control at 31 g/ha (kochia (Kochia scoparia) [2]) [%]	pest or weed control at 125 g/ha (kochia (Kochia scoparia) [2]) [%]	pest or weed control at 31 g/ha [3] [%]	pest or weed control at 125 g/ha [3] [%]	pest or weed control at 31 g/ha [4] [%]	pest or weed control at 125 g/ha [4] [%]	pest or weed control at 31 g/ha [5] [%]	pest or weed control at 125 g/ha [5] [%]	pest or weed control at 31 g/ha [6] [%]	pest or weed control at 125 g/ha [6] [%]	pest or weed control at 31 g/ha [7] [%]	pest or weed control at 125 g/ha [7] [%]	pest or weed control at 31 g/ha (kochia (Kochia scoparia) [8]) [%]	pest or weed control at 125 g/ha (kochia (Kochia scoparia) [8]) [%]	pest or weed control at 31 g/ha [9] [%]	pest or weed control at 125 g/ha [9] [%]	Corn plant response rating (crop injury, 0 = no effect, 100 = complete kill) at 31 g/ha (corn (Zea mays)) [%]	Corn plant response rating (crop injury, 0 = no effect, 100 = complete kill) at 125 g/ha (corn (Zea mays)) [%]	further results
N#Cc1cccc(Oc2ncc(F)cn2)c1Oc1ccc(Br)cn1 [Compound 9]	30	90	40	100	0	10	0	0	30	100	100	100	0	50	60	100	70	100	0	10	pest or weed control at 31 g/ha [10]: 30%; pest or weed control at 125 g/ha [10]: 70%; pest or weed control at 31 g/ha [11]: 30%; pest or weed control at 125 g/ha [11]: 80%; plant injury at 31 g/ha [12]: 0%; plant injury at 125 g/ha [12]: 40%; pest or weed control at 31 g/ha [13]: 20%; pest or weed control at 125 g/ha [13]: 70%; pest or weed control at 31 g/ha [14]: 10%; pest or weed control at 125 g/ha [14]: 70%; pest or weed control at 31 g/ha [15]: 50%; pest or weed control at 125 g/ha [15]: 100%
N#Cc1cccc(Oc2ncc(Br)cn2)c1Oc1ccc(Br)cn1 [Compound 12]	0	30	0	20	0	0	0	0	0	70	60	100	0	20	0	20	10	50	0	20	pest or weed control at 31 g/ha [10]: 0%; pest or weed control at 125 g/ha [10]: 0%; pest or weed control at 31 g/ha [11]: 0%; pest or weed control at 125 g/ha [11]: 50%; plant injury at 31 g/ha [12]: 0%; plant injury at 125 g/ha [12]: 20%; pest or weed control at 31 g/ha [13]: 0%; pest or weed control at 125 g/ha [13]: 0%; pest or weed control at 31 g/ha [14]: 0%; pest or weed control at 125 g/ha [14]: 40%; pest or weed control at 31 g/ha [15]: 10%; pest or weed control at 125 g/ha [15]: 100%

Reference: patent publication US20170190671A1, “BIS(ARYL)CATECHOL DERIVATIVES AS HERBICIDES” (E I DU PONT DE NEMOURS AND COMPANY, priority 2014, published 2017)
